Patent publication US11083725B2 (priority 2014, dated 2021)
“Also recorded” adds a separate entry of the source. Read-outs that look alike come from different tables or passages of the source.

Legend:
CA09 [1] = assay: microbe, parasite or virus in culture; format: cell-based, influenza virus H1N1 strain A/CA/04/2009; set-up: TCID50 (per mL): unit not given here; conditions: for log reduction at 10 pM / log reduction at 0.0001 µM / log reduction at 0.001 µM / log reduction at 0.01 µM / log reduction at 0.1 µM / log reduction at 1 µM / log reduction at 10 µM / log reduction at 100 µM: NHBE, read-out: TCID50 (per mL)
NHBE cells = assay: cells; format: cell-based, human
CA09 [2] = assay: In vivo drug tests in CA09-infected mice: weight loss, survival, lung viral titer; set-up: species or system C57/B6 mice; conditions: mice infected intranasally with CA09
[3] = Therapeutic Drug Treatment, Drug Dose 10 pM, […]
[4] = Therapeutic Drug Treatment, Drug Dose 100 pM, […]
[5] = Therapeutic Drug Treatment, Drug Dose 1 nM, […]
[6] = Therapeutic Drug Treatment, Drug Dose 10 nM, […]
[7] = Therapeutic Drug Treatment, Drug Dose 100 nM, […]
[8] = Therapeutic Drug Treatment, Drug Dose 1 μM, […]
[9] = Therapeutic Drug Treatment, Drug Dose 10 μM, […]
[10] = Therapeutic Drug Treatment, Drug Dose 100 μM, […]
[11] = Homo sapiens, NHBE, read-out: IC50, Prophylactic Treatment, Viral Infected
[12] = Homo sapiens, NHBE, 72 h, read-out: IC50, Therapeutic Treatment, Control
[13] = […], therapeutic schedule, dose response 4 nM to 10 μM, […], read-out: IC50, Therapeutic Treatment, Control
[14] = Homo sapiens, NHBE, 72 h, read-out: IC50, Prophylactic Treatment, Control
[15] = […], dose response 4 nM to 10 μM, […], read-out: IC50, Prophylactic Treatment, Viral Infected

Compound	log reduction at 10 pM (CA09 [1])	log reduction at 0.0001 µM (CA09 [1])	log reduction at 0.001 µM (CA09 [1])	log reduction at 0.01 µM (CA09 [1])	log reduction at 0.1 µM (CA09 [1])	log reduction at 1 µM (CA09 [1])	log reduction at 10 µM (CA09 [1])	log reduction at 100 µM (CA09 [1])	Cell Death Prophylactic (NHBE cells)	also measured
CC(C)CCN1c2nc(Nc3cc(F)c(O)c(F)c3)ncc2N(C)C(=O)C1C (stereo not drawn) [BI-D1870]	0.28	1.18	0.78	0.2	0.99	0.84	0.6	0.65	C > V	Viral Titer Prophylactic (CA09 [1]): Reduced
[O]=[V]1(=[O])(=[O])(=[O])[n+]2cccc3ccc4ccc[n+]1c4c32 [BP/(PHEN)]	–	–	–	–	–	–	–	–	V > C	TCID50 (per mL) (CA09 [1]; [3]): −0.50; TCID50 (per mL) (CA09 [1]; [4]): −0.54; TCID50 (per mL) (CA09 [1]; [5]): −0.44; TCID50 (per mL) (CA09 [1]; [6]): −0.74; TCID50 (per mL) (CA09 [1]; [7]): −0.13; TCID50 (per mL) (CA09 [1]; [8]): −0.32; TCID50 (per mL) (CA09 [1]; [9]): −0.10; TCID50 (per mL) (CA09 [1]; [10]): −0.18
C=C(C)[C@@H]1CC[C@]2(C(=O)O)CC[C@]3(C)[C@H](CC[C@@H]4[C@@]5(C)CC[C@H](O)C(C)(C)[C@@H]5CC[C@]43C)[C@@H]12 [Betulinic Acid]	0.37	0.63	0.51	0.55	0.31	0.96	0.61	0.59	–	IC50 (NHBE cells; [11]): 2000 nM
Clc1ccccc1C(c1ccccc1)(c1ccccc1)n1ccnc1 [Clotrimazole]	0.71	0.85	0.84	0.7	0.48	0.95	0.9	1.07	C > V	Viral Titer Prophylactic (CA09 [1]): Reduced; viral titers in NHBE cells (validated drug hits) (CA09 [1]): consistently reduced; also recorded: consistent reduction; NHBE cell survival / cell death after infection (NHBE cells): differentially affected; also recorded: differential effects; weight loss (CA09 [2]; daily drug for 7 days from 2 days before infection (NVP-BEZ235 25 mg/kg oral gavage; clotrimazole 120 mg/kg ip; α-mangostin 8 mg/kg ip)): little effect; survival (CA09 [2]; daily drug for 7 days from 2 days before infection, monitored 15 days): little effect
CCc1c(-c2ccccc2)c(-c2ccccc2)nn1-c1ccccc1-c1cccc(OCC(=O)O)c1 [FABP4 Inhibitor]	–	–	–	–	–	–	–	–	V > C	Viral Titer Prophylactic (CA09 [1]): Reduced; IC50 (NHBE cells; [12]): 4000 nM
O=C1Nc2ccc3ncsc3c2/C1=C/c1cnc[nH]1 [IMIDAZOLO-OXINDOLE PKR INHIBITOR C16]	–	–	–	–	–	–	–	–	–	IC50 (NHBE cells; [13]): 70 nM
NC(=O)N1CCC(CC(=O)N2CCC([C@H]3c4ncc(Br)cc4CCc4cc(Cl)cc(Br)c43)CC2)CC1 [Lonafarnib]	0.04	0.15	0.56	-0.06	0.3	1.16	0.28	1.25	C > V	IC50 (NHBE cells; [14]): 1900 nM; IC50 (NHBE cells; [11]): 1300 nM
O=C(O)Cn1nnc(-c2cc(N3CCC(Oc4cc(F)ccc4Br)CC3)no2)n1 [MK-8245]	–	–	–	–	–	–	–	–	–	IC50 (NHBE cells; Homo sapiens, NHBE, 72 h, […], prophylactic schedule, dose response 4 nM to 10 μM, […], read-out: IC50, Prophylactic Treatment, Control): 5000 nM
CO/C(=C\C(N)=O)[C@H](C)[C@H](/C=C/c1csc(-c2csc([C@@H](C)/C=C/C=C/C(C)C)n2)n1)OC [Myxothiazol]	–	–	–	–	–	–	–	–	C = V	Cell Death Therapeutic (NHBE cells): C > V
Nc1cc(C(F)(F)F)c(-c2cc(N3CCOCC3)nc(N3CCOCC3)n2)cn1 [NVP-BKM120]	0	0.4	0.76	0	0.29	-0.08	0.07	-0.37	C = V	Cell Death Therapeutic (NHBE cells): C = V; NHBE cell survival / cell death after infection (NHBE cells): no effect
CC[C@@H]1/C=C/C=C/C[C@H](C)[C@@H](O)[C@](C)(O)C(=O)[C@H](C)[C@@H](O)[C@H](C)C(=O)[C@H](C)[C@@H](O)[C@H](C)/C=C/C(=O)O[C@H]2[C@@H](C)[C@@H](CC1)O[C@@]1(CC[C@@H](C)C(CC(C)O)O1)[C@@H]2C (stereo partly drawn) [Oligomycin A]	0.92	0.23	0.51	0.6	0.38	0.77	0.66	0.28	C > V	Viral Titer Therapeutic (CA09 [1]): Reduced; Cell Death Therapeutic (NHBE cells): C > V
CCn1nnc2c(N3CCOCC3)nc(-c3ccc(NC(=O)Nc4ccc(C(=O)N5CCN(C)CC5)cc4)cc3)nc21 [PKI-402]	–	–	–	–	–	–	–	–	C = V	Cell Death Therapeutic (NHBE cells): C = V; NHBE cell survival / cell death after infection (NHBE cells): no effect; IC50 (NHBE cells; [15]): 3000 nM; IC50 (NHBE cells; [13]): 2 nM
CCc1ccc(CCOc2ccc(CC3SC(=O)NC3=O)cc2)nc1 (stereo not drawn) [Pioglitazone]	0.22	0.8	0.66	0.47	-0.1	0.49	0.73	0.23	C > V	–
C=C(C)[C@H]1Cc2c(ccc3c2O[C@@H]2COc4cc(OC)c(OC)cc4[C@@H]2C3=O)O1 [Rotenone]	–	–	–	–	–	–	–	–	C > V	log reduction at 10 pM (CA09 [1]; [3]): 0.09; log reduction at 0.0001 µM (CA09 [1]; [4]): 0.15; log reduction at 0.001 µM (CA09 [1]; [5]): 0.9; log reduction at 0.01 µM (CA09 [1]; [6]): 0.04; log reduction at 0.1 µM (CA09 [1]; [7]): 0.07; log reduction at 1 µM (CA09 [1]; [8]): 0.5; log reduction at 10 µM (CA09 [1]; [9]): 1.14; log reduction at 100 µM (CA09 [1]; [10]): -0.05; Cell Death Therapeutic (NHBE cells): C > V
CCC(C)(C)C(=O)O[C@H]1C[C@@H](C)C=C2C=C[C@H](C)[C@H](CC[C@@H]3C[C@@H](O)CC(=O)O3)[C@H]21 [SIMVASTATIN]	–	–	–	–	–	–	–	–	–	IC50 (NHBE cells; Homo sapiens, NHBE, 72 h, […], therapeutic schedule, dose response 4 nM to 10 μM, […], read-out: IC50, Therapeutic Treatment, Control): 5 nM
CCCCCCCCCCCCCCOc1ccc(C(=O)O)o1 [TOFA]	–	–	–	–	–	–	–	–	–	IC50 (NHBE cells; […], prophylactic schedule, dose response 4 nM to 10 μM, […], read-out: IC50, Prophylactic Treatment, Control): 4000 nM
Cn1cncc1[C@@](N)(c1ccc(Cl)cc1)c1ccc2c(c1)c(-c1cccc(Cl)c1)cc(=O)n2C [Tipifarnib]	0.02	0.73	1.04	0.6	-0.16	1.04	1.4	0	–	IC50 (NHBE cells; [14]): 12 nM; IC50 (NHBE cells; [12]): 13 nM; IC50 (NHBE cells; Homo sapiens, NHBE, read-out: IC50, Therapeutic Treatment, Viral Infected): 33 nM
LB 42708	–	–	–	–	–	–	–	–	–	IC50 (NHBE cells; [13]): 4.5 nM
OLIGOMYCIN (A SHOWN)	–	–	–	–	–	–	–	–	–	IC50 (NHBE cells; read-out: IC50, Therapeutic Treatment, Control): 1000 nM; IC50 (NHBE cells; read-out: IC50, Therapeutic Treatment, Viral Infected): 4 nM
PF 429242	–	–	–	–	–	–	–	–	–	IC50 (NHBE cells; [15]): 6000 nM
